Measured values published in ChEMBL document CHEMBL3046892, “Sensitivity difference to insecticides of a riverine caddisfly, Cheumatopsyche brevilineata (Trichoptera: Hydropsychidae), depending on the larval stages and strains” (J Pestic Sci, 2009).
Converted amounts (≈) assume the structure as drawn.

Tests used:
Cheumatopsyche [1] = test: Ratio of EC50 for fifth-instar larvae of Cheumatopsyche brevilineata K to EC50 for first instar larvae of Cheumatopsyche brevilineata K; type: functional
Cheumatopsyche [2] = test: Ratio of EC50 for fifth-instar larvae of Cheumatopsyche brevilineata M to EC50 for first instar larvae of Cheumatopsyche brevilineata M; type: functional
Cheumatopsyche [3] = test: Insecticidal activity against first-instar larvae of Cheumatopsyche brevilineata K after 48 hr; type: functional, organism-based
Cheumatopsyche [4] = test: Insecticidal activity against fifth-instar larvae of Cheumatopsyche brevilineata K after 48 hr; type: functional, organism-based
Cheumatopsyche [5] = test: Insecticidal activity against first-instar larvae of Cheumatopsyche brevilineata M after 48 hr; type: functional, organism-based
Cheumatopsyche [6] = test: Insecticidal activity against fifth-instar larvae of Cheumatopsyche brevilineata M after 48 hr; type: functional, organism-based
Cheumatopsyche [7] = test: Insecticidal activity against first to fifth instar larvae of Cheumatopsyche brevilineata K after 48 hr; type: functional, organism-based

`COP(=S)(OC)Oc1ccc([N+](=O)[O-])c(C)c1` [FENITROTHION] was tested, and the “Ratio EC50” value (Cheumatopsyche [1]) was 28.4, the “Ratio EC50” value (Cheumatopsyche [2]) was 4.3 and the EC50 (Cheumatopsyche [3]) was 0.0261 µg/mL (≈ 0.0941 µM). For the same compound, the EC50 (Cheumatopsyche [4]) was 0.741 µg/mL (≈ 2.67 µM), the EC50 (Cheumatopsyche [5]) was 0.00623 µg/mL (≈ 0.0225 µM) and the EC50 (Cheumatopsyche [6]) was 0.0265 µg/mL (≈ 0.0956 µM).

`CCC(C)c1ccccc1OC(=O)NC` (stereo not given) [FENOBUCARB] was tested, and the “Ratio EC50” value (Cheumatopsyche [1]) was 36.9, the “Ratio EC50” value (Cheumatopsyche [2]) was 10.3 and the EC50 (Cheumatopsyche [3]) was 0.00789 µg/mL (≈ 0.0381 µM). For the same compound, the EC50 (Cheumatopsyche [4]) was 0.291 µg/mL (≈ 1.4 µM), the EC50 (Cheumatopsyche [5]) was 0.00948 µg/mL (≈ 0.0457 µM) and the EC50 (Cheumatopsyche [6]) was 0.0919 µg/mL (≈ 0.443 µM).

In the case of `O=[N+]([O-])/N=C1\NCCN1Cc1ccc(Cl)nc1` [IMIDACLOPRID], the EC50 (Cheumatopsyche [7]) is reported as 0.00654 µg/mL (≈ 0.0256 µM), the EC50 (Cheumatopsyche [5]) is reported as 0.00664 µg/mL (≈ 0.026 µM) and the EC50 (Cheumatopsyche [6]) is reported as 0.0379 µg/mL (≈ 0.148 µM).
